Assay results reported in ChEMBL document CHEMBL4699597, “Tabernaesines A-I, Cytotoxic Aspidosperma-Aspidosperma-Type Bisindole Alkaloids from Tabernaemontana pachysiphon” (J Nat Prod, 2020).

How the values were obtained:
Assay type in all cases: functional, cell-based
T47D = experiment: Cytotoxicity against human T47D cells assessed as reduction in cell viability after 72 hrs by MTT assay
SW480 = experiment: Cytotoxicity against human SW480 cells assessed as reduction in cell viability after 72 hrs by MTT assay; conditions: SW480, 72 h
SK-MEL-28 = experiment: Cytotoxicity against human SK-MEL-28 cells assessed as reduction in cell viability after 72 hrs by MTT assay; conditions: SK-MEL-28, 72 h
HepG2 = experiment: Cytotoxicity against human HepG2 cells assessed as reduction in cell viability after 72 hrs by MTT assay; conditions: HepG2, 72 h
MDA-MB-231 = experiment: Cytotoxicity against human MDA-MB-231 cells assessed as reduction in cell viability after 72 hrs by MTT assay; conditions: MDA-MB-231, 72 h
A549 = experiment: Cytotoxicity against human A549 cells assessed as reduction in cell viability after 72 hrs by MTT assay; conditions: A549, 72 h

SMILES | IC50 (T47D) [µM] | IC50 (SW480) [µM] | IC50 (SK-MEL-28) [µM] | IC50 (HepG2) [µM] | IC50 (MDA-MB-231) [µM] | IC50 (A549) [µM]
COC(=O)C1=C2Nc3ccccc3[C@@]23CCN2CC(CC4=C[C@@]5(CCO)CC(C(=O)OC)=C6Nc7ccccc7[C@@]67CCN(C4)[C@@H]57)=C[C@@](CCO)(C1)[C@H]23 | > 10 | > 10 | > 10 | > 10 | > 10 | > 10
CCN(CC)Cc1ccc2c(c1O)N1C[C@]3(C[C@@H]4C[C@]56CCO[C@H]5CCN5CC[C@@]2([C@@H]56)[C@]41O)CN1CC[C@]24C(=C(C(=O)OC)C[C@@]5(CCO[C@@H]35)[C@H]12)Nc1ccccc14 | > 10 | > 10 | 8.3 | 7.4 | > 10 | > 10
CC[C@@]12C[C@H]3C[C@]4(CN5CC[C@]67C(=C(C(=O)OC)C[C@@]8(CCO[C@@H]48)[C@H]56)Nc4ccccc47)CN4c5ccccc5[C@@]5(CCN(C[C@H]6O[C@H]61)[C@@H]25)[C@]34O | 5.5 | 7.2 | 6.4 | 9.6 | > 10 | > 10
CC[C@@]12C[C@H]3C[C@@]4(CN5c6ccccc6[C@@]6(CCN(C[C@H]7O[C@H]71)[C@@H]26)[C@H]35)C(=O)N1CC[C@]23C(=C(C(=O)OC)C[C@@]5(CCO[C@@H]45)[C@H]12)Nc1ccccc13 | 9.8 | 9.8 | 6.8 | 6.3 | > 10 | > 10
CC[C@@]12C[C@H]3C[C@@]4(CN5CC[C@]67C(=C(C(=O)OC)C[C@@]8(CCO[C@@H]48)[C@H]56)Nc4ccccc47)CN4c5ccccc5[C@@]5(CCN(C[C@H]6O[C@H]61)[C@@H]25)[C@H]34 | > 10 | > 10 | > 10 | > 10 | > 10 | > 10
CC[C@@]12CC3=C4N(C[C@]5(C3)CN3CC[C@]67C(=C(C(=O)OC)C[C@@]8(CCO[C@@H]58)[C@H]36)Nc3ccccc37)c3ccccc3[C@@]43CCN(C[C@H]4O[C@H]41)[C@@H]23 | > 10 | > 10 | > 10 | > 10 | > 10 | > 10
CC[C@@]12C[C@H]3C[C@]4(CN5CC[C@]67C(=C(C(=O)OC)C[C@@]8(CCO[C@@H]48)[C@H]56)Nc4ccccc47)CN4c5ccccc5[C@@]5(CCN(C[C@H](O)[C@H]1O)[C@@H]25)[C@H]34 | 8.7 | 7.8 | 6.7 | 2.5 | > 10 | > 10
COC(=O)C1=C2Nc3ccccc3[C@@]23CCN2C[C@]4(C[C@@H]5C[C@]67CC(=O)O[C@H]6CCN6CC[C@@]8(c9cccc(OC)c9N(C4)[C@@H]58)[C@@H]67)[C@@H]4OCC[C@]4(C1)[C@H]23 [DEOXYVOBSTUSINE LACTONE] | > 10 | > 10 | > 10 | > 10 | > 10 | > 10
CCN(CC)Cc1ccc2c(c1O)N1C[C@]3(C[C@@H]4C[C@]56CC(=O)O[C@H]5CCN5CC[C@@]2([C@@H]56)[C@]41O)CN1CC[C@]24C(=C(C(=O)OC)C[C@@]5(CCO[C@@H]35)[C@H]12)Nc1ccccc14 | > 10 | > 10 | > 10 | > 10 | > 10 | > 10
CC[C@@]12C[C@H]3C[C@]4(CN5CC[C@]67C(=C(C(=O)OC)C[C@@]8(CCO[C@@H]48)[C@H]56)Nc4ccccc47)CN4c5ccccc5[C@@]5(CCN(C[C@H](O)[C@H]1O)[C@@H]25)[C@]34O | 9.5 | > 10 | > 10 | > 10 | > 10 | > 10
COC(=O)C1=C2Nc3ccccc3[C@@]23CCN2C[C@]4(C[C@@H]5C[C@]67CC(=O)O[C@H]6CCN6CC[C@@]8(c9cccc(O)c9N(C4)[C@@]58O)[C@@H]67)[C@@H]4OCC[C@]4(C1)[C@H]23 | > 10 | > 10 | > 10 | > 10 | > 10 | > 10
CC[C@@]12C[C@H]3C[C@]4(CN5CC[C@]67C(=C(C(=O)OC)C[C@@]8(CCO[C@@H]48)[C@H]56)Nc4ccccc47)CN4c5ccccc5[C@@]5(CCN(C[C@H]6O[C@H]61)[C@@H]25)[C@H]34 | > 10 | > 10 | > 10 | > 10 | > 10 | > 10
CC[C@@]12C[C@H]3C[C@@]4(CN5CC[C@]67C(=C(C(=O)OC)C[C@@]8(CCO[C@@H]48)[C@H]56)Nc4ccccc47)CN4c5ccccc5[C@@]5(CCN(C[C@H](O)[C@H]1O)[C@@H]25)[C@]34O | > 10 | > 10 | > 10 | > 10 | > 10 | > 10
CC[C@]1(O)C[C@@H]2CN(CCc3c([nH]c4ccccc34)[C@@](C(=O)OC)(c3cc4c(cc3OC)N(C)[C@H]3[C@@](O)(C(=O)OC)[C@H](OC(C)=O)[C@]5(CC)C=CCN6CC[C@]43[C@@H]65)C2)C1 [VINBLASTINE] | 0.0103 | 0.0325 | 0.0733 | 0.0093 | 0.0425 | 0.021
CC[C@@]12C[C@H]3C[C@@]4(CN5CC[C@]67C(=C(C(=O)OC)C[C@@]8(CCO[C@@H]48)[C@H]56)Nc4ccccc47)CN4c5ccccc5[C@@]5(CCN(C[C@H]6O[C@H]61)[C@@H]25)[C@]34O | > 10 | > 10 | > 10 | > 10 | 8.3 | > 10
CC[C@@]12C[C@]3(CC4=C5N(C3)c3ccccc3[C@@]53CCN5C[C@H]6O[C@H]6[C@@](CC)(C4)[C@H]53)C3=Nc4ccccc4[C@@]34CCN(C[C@H]3O[C@H]31)[C@@H]24 | > 10 | > 10 | > 10 | > 10 | > 10 | > 10
COC(=O)C1=C2Nc3ccccc3[C@@]23CCN2C[C@]4(C[C@@H]5C[C@]67CCO[C@H]6CCN6CC[C@@]8(c9cccc(OC)c9N(C4)[C@@]58O)[C@@H]67)[C@@H]4OCC[C@]4(C1)[C@H]23 | > 10 | > 10 | > 10 | > 10 | > 10 | > 10
CC[C@@]12C[C@H]3C[C@@]4(CN5CC[C@]67C(=C(C(=O)OC)C[C@@]8(CCO[C@@H]48)[C@H]56)Nc4ccccc47)CN4c5ccccc5[C@@]5(CCN(C[C@H](O)[C@H]1O)[C@@H]25)[C@H]34 | > 10 | > 10 | > 10 | > 10 | > 10 | > 10
COC(=O)C1=C2Nc3ccccc3[C@@]23CCN2C[C@]4(C[C@@H]5C[C@]67CC(=O)O[C@H]6CCN6CC[C@@]8(c9cccc(OC)c9N(C4)[C@@]58O)[C@@H]67)[C@@H]4OCC[C@]4(C1)[C@H]23 | > 10 | > 10 | > 10 | > 10 | > 10 | > 10
